Test results: patent US8138158B2, “Compositions and methods for therapy for diseases characterized by defective chloride transport” (Children's Hospital & Research Center at Oakland, priority 1997, dated 2012)

Key:
Calu-3 airway epithelia = experiment: Short-circuit current (transepithelial Cl secretion) across Calu-3 airway epithelia, Examples 12-13; format: cell-based, human; settings: DPC 4 mM after L-ascorbic acid and forskolin
Experimental: Short-circuit current measurement. Calu-3 or CF15 cells were grown as monolayers, mounted in Ussing chambers and short-circuit current (ISC) was recorded as described (Illek, B. & Fischer, H. (1998) Am. J. Physiol. 275, L902-L910). At 20-50 second intervals, transepithelial voltage was clamped from zero to 2 mV and the transepithelial resistance (Rte) was calculated. A serosa-to-mucosa-directed Cl gradient was applied. Serosal Ussing chamber solution contained (in mM): 120 NaCl, 20 NaHCO3, 5 KHCO3, 1.2 NaH2PO4, 5.6 glucose, 2.5 CaCl2, 1.2 MgCl2. In mucosal Ussing chamber solutions, all Cl salts were exchanged for gluconate salts.
Vitamin C activation of CFTR-mediated Cl secretion was studied in Calu-3 cells grown as epithelial monolayers (FIG. 21A). Exposure of the apical membrane to maximal concentrations of L-ascorbic acid stimulated transepithelial Cl currents (ISC) in a sustained fashion to 96±11 μA/cm^2 (n=22). Subsequent addition of forskolin further increased ISC to 141±33 μA/cm^2 (n=9, p=0.029). On average, Cl secretion was stimulated by ascorbate to 68% of the currents elicited by forskolin. The Cl channel blocker diphenylcarboxylate (DPC, 4 mM) was added as a measure for the transcellular Cl current decreasing ISC to 30±4 μA/cm^2. When Cl secretion was first stimulated with forskolin (to 106±23 μA/cm^2, n=4) ascorbate had no significant effect on Ise (at 100 μM: ΔICl=−1.5±3.5 μA/cm^2, n=4, not different from zero, one-sample t test). Half-maximal stimulatory constant averaged 36.5±2.9 μm as determined from transepithelial dose-response experiments.
Furthermore, the response to ascorbate in Na-containing medium was blunted in the presence of phloretin, a known inhibitor of the sodium-dependent vitamin C transporters SVCT1 and SVCT2 (Tsukaguchi, H., Tokui, T., Mackenzie, B., Berger, U. V., Chen, X. Z., Wang, Y., Brubaker, R. F. & Hediger, M. A. (1999) Nature 399, 70-75). […] Molecular expression of SVCT1 and SVCT2 transcripts in Calu-3 cells was verified using RT-PCR and DNA sequencing analysis. For comparison, human ciliated tracheal epithelial cultures (hTE) and a nasal cystic fibrosis airway cell line (CF15) were included. […] The recombinantly expressed SVCT2-EGFP fusion protein was targeted exclusively to the apical membrane pole of CF15 epithelia.

Calu-3 monolayers = experiment: Transepithelial short-circuit current (Isc) across unstimulated Calu-3 monolayers; format: cell-based, human; settings: DPC 5 mM
Experimental: Currents were recorded with a serosal-to-mucosal chloride gradient at 0 mV and pulses were obtained at 2 mV.
Ascorbic acid (100 μM) was added as indicated. For comparison, ascorbic acid-stimulated chloride current was subsequently stimulated by the cAMP elevating agonist forskolin (20 μM, serosal). The CFTR activator genistein (20 mM) was then added to the mucosal perfusion as indicated. […] Currents were recorded with a serosal-to-mucosal chloride gradient at 0 mV and pulses were obtained at 2 mV.
100 μM ascorbic acid and forskolin (fsk, 20 μM, serosal) were added as indicated. The CFTR activator kaempferol (20 μM) was subsequently added, as indicated. […] Currents were recorded with a serosal-to-mucosal chloride gradient at 0 mV and pulses were obtained at 2 mV.
This experiment was performed using unstimulated tissue.
Kinetic analysis is depicted on the right panel and estimated half maximal stimulatory dose was 11.7 μM. […]
For comparison, ascorbic acid-stimulated chloride currents were stimulated by the cAMP elevating agonist forskolin (20 μM, serosal).
Stimulated C1 currents returned to baseline after 5-15 min.

[1] = system: primary bovine tracheal epithelium; experiment: Transepithelial chloride secretion across primary bovine tracheal epithelium; format: cell-based; settings: DPC 5 mM, after quercetin
Experimental: Alternatively, such assays may be performed using a mammalian trachea, such as a primary human, mouse, sheep, pig or cow tracheal epithelium using the Ussing chamber technique as described above. Such assays are performed in the presence and absence of test compound to identify flavones, isoflavones, ascorbate or derivatives thereof that stimulate chloride transport.
FIG. 3 illustrates the results of a related experiment to evaluate the dose-dependent stimulation of transepithelial chloride secretion by quercetin across a primary bovine tracheal epithelium. The epithelial cells were first treated with amiloride (50 μM), and then with quercetin at the indicated concentrations. The dose-response relation yielded a half maximal stimulation at 12.5 μM.

**Q.** For `O=C(O)c1ccccc1Nc1ccccc1` [DPC, reference compound], which “ISC decreased to” value (Calu-3 airway epithelia) is on record?
**A.** The value was 30±4 μA/cm^2.

**Q.** And the “block of stimulated chloride current by chloride channel blocker” value (Calu-3 monolayers)?
**A.** The value was “completely blocked”.

**Q.** And the “inhibition of stimulated current by CFTR channel blocker” value [1]?
**A.** Its value is “fully inhibited”.
